≈ marks a conversion by molar mass, not a printed value.
Tests used:
MDA-MB-468 = test: Cytotoxicity against human MDA-MB-468 assessed as cell growth at high concentration; assay type: functional
BT-549 = test: Cytotoxicity against human BT549 assessed as cell growth at high concentration; assay type: functional
DU-145 = test: Cytotoxicity against human DU145 assessed as cell growth at high concentration; assay type: functional
MCF7 = test: Cytotoxicity against human MCF7 assessed as cell growth at high concentration; assay type: functional
PC-3 = test: Cytotoxicity against human PC3 assessed as cell growth at high concentration; assay type: functional
UO-31 = test: Cytotoxicity against human UO31 assessed as cell growth at high concentration; assay type: functional
TK-10 = test: Cytotoxicity against human TK10 assessed as cell growth at high concentration; assay type: functional
CAKI-1 = test: Cytotoxicity against human Caki1 assessed as cell growth at high concentration; assay type: functional
ACHN = test: Cytotoxicity against human ACHN assessed as cell growth at high concentration; assay type: functional
A498 = test: Cytotoxicity against human A498 assessed as cell growth at high concentration; assay type: functional
786-0 = test: Cytotoxicity against human 786-0 assessed as cell growth at high concentration; assay type: functional
[1] = Cytotoxicity against human NCI-ADR-RES assessed as cell growth at high concentration; assay type: functional
OVCAR-5 = test: Cytotoxicity against human OVCAR5 assessed as cell growth at high concentration; assay type: functional
OVCAR-8 = test: Cytotoxicity against human OVCAR8 assessed as cell growth at high concentration; assay type: functional
UACC-257 = test: Cytotoxicity against human UACC257 assessed as cell growth at high concentration; assay type: functional
UACC-62 = test: Cytotoxicity against human UACC62 assessed as cell growth at high concentration; assay type: functional
SK-MEL-28 = test: Cytotoxicity against human SK-MEL-28 assessed as cell growth at high concentration; assay type: functional
SK-MEL-5 = test: Cytotoxicity against human SK-MEL-5 assessed as cell growth at high concentration; assay type: functional
SK-MEL-2 = test: Cytotoxicity against human SK-MEL-2 assessed as cell growth at high concentration; assay type: functional
MDA-MB-435 = test: Cytotoxicity against human MDA-MB-435 assessed as cell growth at high concentration; assay type: functional
M14 = test: Cytotoxicity against human M14 assessed as cell growth at high concentration; assay type: functional
Malme-3M = test: Cytotoxicity against human MALME-3M assessed as cell growth at high concentration; assay type: functional
LOX IMVI = test: Cytotoxicity against human LOXIMVI assessed as cell growth at high concentration; assay type: functional
U-251 = test: Cytotoxicity against human U251 assessed as cell growth at high concentration; assay type: functional
SNB-19 = test: Cytotoxicity against human SNB19 assessed as cell growth at high concentration; assay type: functional
NCI-H460 = test: Cytotoxicity against human NCI-H460 assessed as cell growth at high concentration; assay type: functional
HOP-62 = test: Cytotoxicity against human HOP62 assessed as cell growth at high concentration; assay type: functional
HOP-92 = test: Cytotoxicity against human HOP92 assessed as cell growth at high concentration; assay type: functional
EKVX = test: Cytotoxicity against human EKVX assessed as cell growth at high concentration; assay type: functional
A549 = test: Cytotoxicity against human A549 assessed as cell growth at high concentration; assay type: functional
RPMI-8226 = test: Cytotoxicity against human RPMI8226 assessed as cell growth at high concentration; assay type: functional
K562 = test: Cytotoxicity against human K562 assessed as cell growth at high concentration; assay type: functional
CCRF-CEM = test: Cytotoxicity against human CCRF-CEM assessed as cell growth at high concentration; assay type: functional
[2] = Selectivity index, ratio of CC50 for human MT4 cells to IC50 for HIV2 ROD; assay type: functional
[3] = Cytotoxicity against human MT4 cells by MTT assay; assay type: cell-based
[4] = Selectivity index, ratio of CC50 for human MT4 cells to IC50 for HIV1 3B; assay type: functional
[5] = tested on: Human immunodeficiency virus 2; test: Antiviral activity against HIV2 ROD infected in MT4 cells assessed as inhibition of virus-induced cytopathogenicity by MTT assay; assay type: functional, organism-based; details: Human immunodeficiency virus 2, ISOLATE ROD
Human alphaherpesvirus 3 = test: Antiviral activity against thymidine kinase-deficient Varicella-zoster virus infected in HEL cells assessed as reduction in plaque formation; assay type: functional, organism-based; details: Human alphaherpesvirus 3, HEL
SF-268 = test: Cytotoxicity against human SF268 assessed as cell growth at high concentration; assay type: functional
SW-620 = test: Cytotoxicity against human SW620 assessed as cell growth at high concentration; assay type: functional
KM12 = test: Cytotoxicity against human KM12 assessed as cell growth at high concentration; assay type: functional
HCT-15 = test: Cytotoxicity against human HCT15 assessed as cell growth at high concentration; assay type: functional
COLO 205 = test: Cytotoxicity against human COLO205 assessed as cell growth at high concentration; assay type: functional
Cytomegalovirus [6] = test: Antiviral activity against Cytomegalovirus Davis in HEL cells assessed as reduction in plaque formation; assay type: functional, organism-based; details: Human betaherpesvirus 5, Davis
[7] = Cytotoxicity against human HEL cells assessed as alteration in cell morphology; assay type: cell-based
Cytomegalovirus [8] = test: Antiviral activity against Cytomegalovirus AD-169 infected in HEL cells assessed as reduction in plaque formation; assay type: functional, organism-based; details: Human betaherpesvirus 5, AD-169, HEL
Aspergillus niger [9] = test: Antifungal activity against Aspergillus niger MTCC 282; assay type: functional
Aspergillus clavatus = test: Antifungal activity against Aspergillus clavatus MTCC 1323; assay type: functional
Candida albicans = test: Antifungal activity against Candida albicans MTCC 227; assay type: functional
Aspergillus niger [10] = test: Antifungal activity against Aspergillus niger MTCC 282 at 250 ug/ml after 74 hrs by Kirby-Bauer method; assay type: functional; details: MTCC 282, 74 h, read-out: IZ
Pseudomonas aeruginosa [11] = test: Antibacterial activity against Pseudomonas aeruginosa MTCC 424 after 24 hrs by broth dilution method; assay type: functional; details: MTCC 424, 24 h
Escherichia coli [12] = test: Antibacterial activity against Escherichia coli MTCC 443 after 24 hrs by broth dilution method; assay type: functional; details: MTCC 443, 24 h
Staphylococcus aureus [13] = test: Antibacterial activity against Staphylococcus aureus MTCC 96 after 24 hrs by broth dilution method; assay type: functional; details: MTCC 96, 24 h
Pseudomonas aeruginosa [14] = test: Antibacterial activity against Pseudomonas aeruginosa MTCC 424 at 250 ug/ml after 24 hrs by Kirby-Bauer method; assay type: functional; details: MTCC 424, 24 h, read-out: IZ
Escherichia coli [15] = test: Antibacterial activity against Escherichia coli MTCC 443 at 250 ug/ml after 24 hrs by Kirby-Bauer method; assay type: functional; details: MTCC 443, 24 h, read-out: IZ
Streptococcus pyogenes = test: Antibacterial activity against Streptococcus pyogenes MTCC 442 at 250 ug/ml after 24 hrs by Kirby-Bauer method; assay type: functional; details: MTCC 442, 24 h, read-out: IZ
Staphylococcus aureus [16] = test: Antibacterial activity against Staphylococcus aureus MTCC 96 at 250 ug/ml after 24 hrs by Kirby-Bauer method; assay type: functional; details: MTCC 96, 24 h, read-out: IZ

## Cc1ccc(-[n+]2noc([O-])c2CN2CCNCC2)cc1
MDA-MB-468
  Activity: 101.9%
BT-549
  Activity: 110.58%
DU-145
  Activity: 102.16%
MCF7
  Activity: 90.74%
PC-3
  Activity: 88.56%
UO-31
  Activity: 70.1%
TK-10
  Activity: 102.68%
CAKI-1
  Activity: 91.35%
ACHN
  Activity: 92.05%
A498
  Activity: 91.02%
786-0
  Activity: 105.96%
[1]
  Activity: 99.62%
OVCAR-5
  Activity: 96.81%
OVCAR-8
  Activity: 104.3%
UACC-257
  Activity: 96.41%
UACC-62
  Activity: 93.66%
SK-MEL-28
  Activity: 105.58%
SK-MEL-5
  Activity: 100.25%
SK-MEL-2
  Activity: 114.56%
MDA-MB-435
  Activity: 103.5%
M14
  Activity: 105.86%
Malme-3M
  Activity: 109.79%
LOX IMVI
  Activity: 92.56%
U-251
  Activity: 91.33%
SNB-19
  Activity: 103.47%
NCI-H460
  Activity: 95.72%
HOP-62
  Activity: 90.65%
HOP-92
  Activity: 76.22%
EKVX
  Activity: 104.33%
A549
  Activity: 99.61%
RPMI-8226
  Activity: 100.12%
K562
  Activity: 120.22%
CCRF-CEM
  Activity: 102.79%
[2]
  Ratio CC50/IC50: <1
[3]
  CC50: 32.6 µg/mL (≈ 119 µM)
[4]
  Ratio CC50/IC50: <1
[5]
  IC50: > 32.6 µg/mL
Human alphaherpesvirus 3
  EC50: > 20 µg/mL
SF-268
  Activity: 95.92%
SW-620
  Activity: 96.29%
KM12
  Activity: 91.06%
HCT-15
  Activity: 102.72%
COLO 205
  Activity: 99.98%
Cytomegalovirus [6]
  EC50: > 20 µg/mL
[7]
  MCC: 100 µg/mL
Cytomegalovirus [8]
  EC50: > 20 µg/mL
Aspergillus niger [9]
  MIC: 200 µg/mL (≈ 729 µM)
Aspergillus clavatus
  MIC: 200 µg/mL (≈ 729 µM)
Candida albicans
  MIC: 200 µg/mL (≈ 729 µM)
Aspergillus niger [10]
  zone of inhibition at 250 µg/mL: 25 mm
Pseudomonas aeruginosa [11]
  MIC: 50 µg/mL (≈ 182 µM)
Escherichia coli [12]
  MIC: 100 µg/mL (≈ 365 µM)
Staphylococcus aureus [13]
  MIC: 200 µg/mL (≈ 729 µM)
Pseudomonas aeruginosa [14]
  zone of inhibition at 250 µg/mL: 23 mm
Escherichia coli [15]
  zone of inhibition at 250 µg/mL: 21 mm
Streptococcus pyogenes
  zone of inhibition at 250 µg/mL: 17 mm
Staphylococcus aureus [16]
  zone of inhibition at 250 µg/mL: 17 mm

## Cc1ccc(-[n+]2noc([O-])c2CN2CCN(c3cccc(Cl)c3)CC2)cc1
MDA-MB-468
  Activity: 80.15%
BT-549
  Activity: 98.47%
DU-145
  Activity: 95.5%
MCF7
  Activity: 92.1%
PC-3
  Activity: 70.26%
UO-31
  Activity: 61.64%
TK-10
  Activity: 119.81%
CAKI-1
  Activity: 86.38%
ACHN
  Activity: 87.78%
A498
  Activity: 51.7%
786-0
  Activity: 101.4%
[1]
  Activity: 97.44%
OVCAR-5
  Activity: 94.62%
OVCAR-8
  Activity: 94.91%
UACC-257
  Activity: 93.49%
UACC-62
  Activity: 82.63%
SK-MEL-28
  Activity: 98.44%
SK-MEL-5
  Activity: 95.3%
SK-MEL-2
  Activity: 108.26%
MDA-MB-435
  Activity: 100.2%
M14
  Activity: 107.94%
Malme-3M
  Activity: 95.22%
LOX IMVI
  Activity: 99.09%
U-251
  Activity: 82.08%
SNB-19
  Activity: 99.85%
NCI-H460
  Activity: 89.39%
HOP-62
  Activity: 86.8%
HOP-92
  Activity: 72.29%
EKVX
  Activity: 88.38%
A549
  Activity: 96.53%
RPMI-8226
  Activity: 72.54%
K562
  Activity: 53.83%
CCRF-CEM
  Activity: 72.82%
[2]
  Ratio CC50/IC50: <1
[3]
  CC50: 27.4 µg/mL (≈ 71.3 µM)
[4]
  Ratio CC50/IC50: <1
[5]
  IC50: > 27.4 µg/mL
Human alphaherpesvirus 3
  EC50: > 20 µg/mL
SF-268
  Activity: 88.36%
SW-620
  Activity: 92.74%
KM12
  Activity: 99.21%
HCT-15
  Activity: 77.65%
COLO 205
  Activity: 89.45%
Cytomegalovirus [6]
  EC50: > 20 µg/mL
[7]
  MCC: 100 µg/mL
Cytomegalovirus [8]
  EC50: 15.3 µg/mL (≈ 39.8 µM)
Aspergillus niger [9]
  MIC: 500 µg/mL (≈ 1300 µM)
Aspergillus clavatus
  MIC: 200 µg/mL (≈ 520 µM)
Candida albicans
  MIC: 200 µg/mL (≈ 520 µM)
Aspergillus niger [10]
  zone of inhibition at 250 µg/mL: 23 mm
Pseudomonas aeruginosa [11]
  MIC: 150 µg/mL (≈ 390 µM)
Escherichia coli [12]
  MIC: 100 µg/mL (≈ 260 µM)
Staphylococcus aureus [13]
  MIC: 62.5 µg/mL (≈ 162 µM)
Pseudomonas aeruginosa [14]
  zone of inhibition at 250 µg/mL: 21 mm
Escherichia coli [15]
  zone of inhibition at 250 µg/mL: 22 mm
Streptococcus pyogenes
  zone of inhibition at 250 µg/mL: 20 mm
Staphylococcus aureus [16]
  zone of inhibition at 250 µg/mL: 22 mm

Reference: ChEMBL document CHEMBL3044741, “Synthesis of novel biologically active methylene derivatives of sydnones” (Med Chem Res, 2013)
